Experimental data from patent publication US9120819B2, “FGF-receptor agonist dimeric compounds” (SANOFI, priority 2006, dated 2015).

Experiments:
C57 mice = assay: Model of post-ischaemic leg revascularization in mice; format: in vivo; settings: 30 mg/kg/day administered subcutaneously for 7 days
Protocol: Model of Post-Ischaemic Leg Revascularization in Mice
The experiment is carried out on C57 mice (IFFA CREDO France).
The animals are anaesthetized by intraperitonal injection, in a volume of 10 ml/kg, of a solution of 50 mg/kg ketamine (Ketamine 1000 Virbac®, Virbac Carros France) and 10 mg/kg xylazine (Rompun 2%®, Bayer Pharma Puteaux France). The animal is placed so that it is lying on its back, and after shaving and disinfection of the skin by painting with Vetedine® solution (Vetoquinol S.A. Lure France), an incision is made in the inguinal region. The femoral artery is excized, the collateral arteries are cauterized and the external and circumflex iliac arteries are ligatured. The skin is sutured with separate stitches using non-resorbable thread. The animals are placed in the recovery room, the temperature of which is regulated at 25° C., until they are completely awake.
The distal perfusion is measured using a laser Doppler scanner (LDPI Lisca Perimed model PIM II, AB Sweden). This technique makes it possible to measure the cutaneous perfusion of the upper part of the back legs. […] Measurements are carried out successively on the healthy leg and on the leg rendered ischaemic in order to establish a perfusion deficit expressed as %. […]

[1] = test system: human vein endothelial cells (HUVECs); assay: In vitro angiogenesis model (HUVEC rearrangement on matrigel, pseudotubule length); format: cell-based; settings: at a concentration of 10 nM, 24 hours
Protocol: In vitro Angiogenesis Model
The products are tested in terms of inducing the rearrangement of human vein endothelial cells (HUVECs) on matrigel (Becton dickinson 356230) diluted in collagen (rat tail collagen, type I: Becton dickinson 354236). After 24 hours, the cells are observed under the microscope with a X4 objective and the length of the pseudotubules is measured by means of an image analyser (BIOCOM-Visiolab 2000 software).

FGF-R4α-hMp1 = assay: Baf/3-FGF-R4α proliferation model; format: cell-based, murine; settings: at a concentration of 30 μM
Protocol: (§1) Baf/3-FGFR1β or FGF-R4α Proliferation Model
(§2) Obtaining the Chimeric Receptor Constructs
(§3) The chimeric receptors are made up of the intracellular portion of hMp1 (NM_005373) and the transmembrane and extracellular domains of FGF-R1β or FGF-R4α.
(§4) For each FGF receptor, the FGF-R (BamHI-SacI) and hMp1 (SacI-NotI) fragments are simultaneously cloned into the vector pEF6 (Invitrogen) digested with BamHI and NotI.
(§5) Murine BaF/3 cells are transfected by electroporation. 20 μg of plasmid carrying the constructs FGF-R1β-hMp1 or FGF-R4α-hMp1 are mixed with 5×10^6 cells taken up in 800 μl of RPMI (invitrogen). The mixture is subjected to two electric shocks of 400 V with an interval of 0.1 ms. The cells are taken up for 48 h in an RPMI medium containing 10% FCS (foetal calf serum, gibco), glutamine (invitrogen), NEAA (nonessential amino acids, invitrogen), NaPyr (sodium pyruvate, invitrogen) and 10 ng/ml of IL-3, before being selected with 10 μg/ml of blasticidin (Cayla).
(§6) Culture of Transfected Cells […]
(§7) A confluent culture of BaF/3 cells carrying the chimeric receptors is passaged one-in-three in culture medium supplemented with IL-3 (10 ng/ml) for 24 h. […] The plates are incubated for 28 h at 37° C. and then 100 μl of Cell Titer Glo (Promega) are added and the amount of ATP is quantified using a luminometer (Luminoskan Ascent, Labsystems).

FGF-R1β-hMp1 = assay: Baf/3-FGFR1β proliferation model; format: cell-based, murine; settings: at a concentration of 30 μM
Protocol: as §1, §2, §3, §4, §5, §6, §7

Cc1c(OCCOCCOCCOCCOCCOCCOCCOc2c(C)c(C(=O)c3ccc(N)c(C(=O)[O-])c3)n3ccccc23)c2ccccn2c1C(=O)c1ccc(N)c(C(=O)[O-])c1.[Na+].[Na+] [Example 21, Disodium salt of 3,3′-{3,6,9,12,15,18-hexaoxaicosane-1,20-diylbis[oxy(2-methylindolizine-1,3-diyl)carbonyl]}bis(6-aminobenzoic acid)]
activity in the ischaemic leg model (post-ischaemic perfusion recovery) (C57 mice): significant activity

COc1c(C)c(C(=O)c2ccc(N)c(C(=O)[O-])c2)n2cccc(OCCOCCOCCOCCOCCOCCOc3cccn4c(C(=O)c5ccc(N)c(C(=O)[O-])c5)c(C)c(OC)c34)c12.[Na+].[Na+] [Example 2, disodium salt of 3,3′-{3,6,9,12,15-pentaoxaheptadecane-1,17-diylbis[oxy(1-methoxy-2-methylindolizine-8,3-diyl)carbonyl]}bis(6-aminobenzoic acid)]
activity on the in vitro angiogenesis model [1]: active

Cc1c(NC(=O)c2cccc(OCC(=O)NCCNC(=O)COc3cccc(C(=O)Nc4c(C)c(C(=O)c5ccc(N)c(C(=O)[O-])c5)n5ccccc45)c3)c2)c2ccccn2c1C(=O)c1ccc(N)c(C(=O)[O-])c1.[Na+].[Na+] [Example 44]
activity on the Baf/3-FGF-R4α proliferation (FGF-R4α-hMp1): active
activity on the Baf/3-FGFR1β proliferation (FGF-R1β-hMp1): active

COc1cc(C(=O)c2nc(-c3cccc(C(=O)[O-])c3)c3c(OCCOCCOCCOCCOCCOCCOc4cccn5c(C(=O)c6ccc(N)c(OC)c6)nc(-c6cccc(C(=O)[O-])c6)c45)cccn23)ccc1N.[Na+].[Na+] [Example 8, Disodium salt of 3,3′-(3,6,9,12,15-pentaoxaheptadecane-1,17-diylbis{oxy[3-(4-amino-3-methoxybenzoyl)imidazo[1,5-a]pyridine-8,1-diyl]})dibenzoic acid]
activity on the in vitro angiogenesis model [1]: active
